Measured values: paper PMC1831776, “Structure and characterization of a novel chicken biotin-binding protein A (BBP-A)” (BMC Structural Biology, 2007)
Marks after values point to notes of the source that are not given here. Values belong to the compound of their own block, whether it stands above or below them.

Key:
[1] = target: T1, bBBP-A (Gallus gallus, UniProt E1BTQ4); assay: Intrinsic fluorescence emission spectra, BBP-A; type: binding, chicken; details: 100 nM protein, 200 nM ligand, 25°C, excitation 280 nm
T1 sequence (E1BTQ4 22-146): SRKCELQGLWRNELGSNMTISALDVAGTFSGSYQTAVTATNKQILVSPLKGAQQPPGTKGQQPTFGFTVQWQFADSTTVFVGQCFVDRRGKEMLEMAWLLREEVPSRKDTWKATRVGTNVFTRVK
Procedure: (§1) The ligand-induced changes to the emission spectra of bBBP-A and wtAVD were studied, too (Figure 11). […] Compared to the ligand-free proteins, for each of the ligand-protein combinations the maximum in the emission spectra moved towards the shorter blue wavelengths.
(§2) In order to study the intrinsic fluorescence of the proteins, the emission spectra of bBBP-A and wtAVD in 50 mM NaPO4 buffer (pH 7.0) containing 650 mM NaCl were measured using a PerkinElmer LS55 spectrofluorometer and excitation at 280 nm (slit 2.5 nm). During the analysis, protein solutions (100 nM) were continuously mixed using an integrated magnetic stirrer and maintained at 25°C using a circulating water bath.

[2] = target: T1, bBBP-A; assay: Fluorescence spectroscopy protein-ligand dissociation analysis; type: binding, chicken
Procedure: Fluorescence spectroscopy was also used to measure the rate of protein-ligand dissociation. These experiments were made at 40°C in order to measure the dissociation events within an experimentally applicable timescale. […] The measured spectral properties of each protein-ligand complex (i.e. the emission intensity of the protein-ligand complex) were used to create a single-phase dissociation model, which was fitted to the data.

[3] = target: T2, BBP-A (Gallus gallus, UniProt E1BTQ4); assay: Biotin-binding affinity of BBP-A; set-up: species or system chicken
T2 sequence (E1BTQ4 22-146): T1 sequence (E1BTQ4 22-146)
Procedure: Background The chicken genome contains a BBP-A gene showing similar characteristics to avidin family genes. In a previous study we reported that the BBP-A gene may encode a biotin-binding protein due to the high sequence similarity with chicken avidin, especially at regions encoding residues known to be located at the ligand-binding site of avidin.
(§3) The dissociation rate of [^3H]biotin from BBP-A was measured using a competitive dissociation assay (Figure 9; Table 2).

[4] = tested on: AVD; assay: Dissociation of BSO (fluorometric) versus BTN (radiobiotin) from AVD; type: binding, chicken; details: 50°C; BSO fluorometric analysis, BTN radiobiotin assay
[5] = target: T3, wtAVD (Gallus gallus, UniProt P02701); assay: Intrinsic fluorescence emission spectra, AVD; type: binding, chicken; details: 100 nM protein, 200 nM ligand, 25°C, excitation 280 nm
T3 construct: AVD isolated from chicken egg-white (wtAVD; Belovo S. A., Bastogne, Belgium); purchased Belovo S. A., Bastogne, Belgium; host or cells: chicken egg-white
Procedure: as §1, §2

[6] = target: T1, bBBP-A; assay: DSC of BBP-A in the presence of ligand; type: binding, chicken
Procedure: (§4) Differential scanning analysis was performed in 50 mM NaPO4 buffer (pH 7.0) containing 100 mM NaCl as previously described. The concentration of the analyzed proteins was between 0.2 and 0.6 mg/ml. In samples containing a ligand, the molar ligand concentration was three times as high as the protein subunit concentration. The samples were scanned from 25 to 130°C at a rate of 0.92°C/min.

[7] = target: T4, chicken AVD (Gallus gallus, UniProt P02701); assay: DSC of AVD in the presence of ligand; type: binding
T4 construct: AVD isolated from chicken egg-white (wtAVD; Belovo S. A., Bastogne, Belgium); purchased Belovo S. A., Bastogne, Belgium; host or cells: chicken egg-white
Procedure: as §4

[8] = target: T4, chicken AVD; assay: Isothermal titration calorimetry, AVD; type: binding; details: 25°C
Procedure: (§5) The energetics of biotin binding was determined with a VP-ITC (MicroCal™) Isothermal Titration Calorimeter. Measurements were performed at 25°C in degassed 50 mM NaPO4 buffer (pH 7.0) containing 100 mM NaCl. In order to calculate the enthalpies of binding (ΔH) for BBP-A and AVD, the cell used for measurements was filled with 30 μM protein solution. […] The data were analysed with Origin 7.0 software using the "One Set of Sites" method. The titration curve (heat change μcal/injection) resulting from the 15 injections was analysed by fitting the data to a nonlinear least square curve.

[9] = target: T1, bBBP-A; assay: Isothermal titration calorimetry, BBP-A; type: binding, chicken; details: for Enthalpy (ITC), BBP-A: 25°C
Procedure: as §5

[10] = target: T1, bBBP-A; assay: [3H]-biotin competitive dissociation analysis (ligand from BBP-A); type: binding, chicken; details: 40°C, [3H]-biotin dissociation analysis, excess of BTN as competitive ligand
Procedure: as §3
The dissociation rate of [^3H]biotin (Amersham) was measured at various temperatures with a competition assay as described previously. Measurements were carried out in 50 mM NaPO4 buffer containing 100 mM NaCl.

[11] = Differential scanning calorimetry of the proteins; type: physicochemical, chicken; details: with BTN
Procedure: as §4

[12] = without BTN; ref [33]; cited from earlier work
[13] = Dissociation of fluorescent biotin conjugate ArcDia BF560-biotin from the proteins; type: binding; details: 25°C
Procedure: as §3
The dissociation rate of the fluorescent biotin conjugate ArcDia™ BF560-biotin (ArcDia Ltd., Turku, Finland) was measured as reported previously. The measurements were made at 25°C in 50 mM NaPO4 buffer (pH 7.0) containing 650 mM NaCl using a PerkinElmer LS55 luminometer.

[14] = set-up: method as in PMID 15324300; details: ref [30], cited from earlier work; for Tr +BTN: with BTN; for Tr -BTN: without BTN
[15] = target: chicken biotin-binding protein A expressed in bacteria (bBBP-A) (chicken); assay: crystal structure; bBBP-A co-crystallised with BTN; two crystals, BBP-A - BTN (2.1 A, I4(1)22) and BBP-A - BSO (1.75 A, P2(1)2(1)2)
[16] = target: chicken biotin-binding protein A expressed in bacteria (bBBP-A) (chicken); assay: SDS-PAGE-based thermostability assay; samples saturated with BTN; acetylated in vitro, thermal treatment 20 min in sample buffer with SDS and 2-mercaptoethanol, Coomassie staining
[17] = target: chicken biotin-binding protein A expressed in bacteria (bBBP-A) (chicken); assay: SEC; gel filtration, Superdex 200 10/300 GL, 50 mM NaPO4, 650 mM NaCl, pH 7.0; samples without BTN and after 15 min with 0.22 mM BTN; apparent masses from standard proteins
[18] = target: chicken biotin-binding protein A expressed in insect cells (iBBP-A) (chicken); assay: SDS-PAGE-based thermostability assay; samples saturated with BTN; acetylated in vitro, thermal treatment 20 min in sample buffer with SDS and 2-mercaptoethanol, Coomassie staining
[19] = target: chicken biotin-binding protein A expressed in insect cells (iBBP-A) (chicken); assay: SEC; gel filtration, Superdex 200 10/300 GL, 50 mM NaPO4, 650 mM NaCl, pH 7.0; samples without BTN and after 15 min with 0.22 mM BTN; apparent masses from standard proteins
[20] = 40°C, fluorescence spectroscopic analysis, excess of BTN as competitive ligand

T4 sequence (P02701 25-152): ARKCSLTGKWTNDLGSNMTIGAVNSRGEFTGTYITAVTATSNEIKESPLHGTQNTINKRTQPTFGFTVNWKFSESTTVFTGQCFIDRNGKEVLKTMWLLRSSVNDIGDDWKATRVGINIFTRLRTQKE
T3 sequence (P02701 25-152): as above

Compound: O=C(O)CCCC[C@H]1[C@H]2NC(=O)N[C@H]2C[S+]1[O-] (stereo partly drawn) [BSO, D-biotin D-sulfoxide]
- ligand-induced change of emission intensity of BBP-A [1]: enhanced the emission intensity
- kdiss from BBP-A [2, 20]: 1.3^a × 10^-4 s^-1
- affinity of BBP-A for BSO compared with BTN [3]: even higher than the affinity for BTN
- dissociation rate from AVD, times higher in comparison to BTN [4]: more than 20 times
- ligand-induced change of emission intensity of AVD [5]: decreased the emission intensity
- Tm (DSC), BBP-A [6]: 100.4 ± 0.2 °C
- Tm (DSC), AVD [7]: 116.9 ± 0.2 °C
- Enthalpy (ITC), AVD [8]: -29.3 ± 0.1 kcal/mol
- Enthalpy (ITC), BBP-A [9]: -25.9 ± 0.1 kcal/mol

Compound: O=C(O)CCCC[C@@H]1SC[C@@H]2NC(=O)N[C@@H]21 [BTN, D-biotin]
- ligand-induced change of emission intensity of BBP-A [1]: enhanced the emission intensity
- kdiss from BBP-A [2]: 5.4^b (4.4^c) × 10^-4 s^-1
- affinity of BBP-A for biotin, times lower than that of chicken avidin [3]: about 50 times
- kdiss from BBP-A [10]: 5.4^b (4.4^c) × 10^-4 s^-1
- ligand-induced change of emission intensity of AVD [5]: decreased the emission intensity
- Tm (DSC), BBP-A [6]: 103.4 ± 0.1 °C
- Tm (DSC), AVD [7]: 117.0 ± 0.7 °C
- Enthalpy (ITC), AVD [8]: -22.6 ± 0.1 kcal/mol
- Kd [9]: < 1 nM
- Enthalpy (ITC), BBP-A [9]: -20.5 ± 0.1 kcal/mol

Compound: O=C(O)CCCC[C@H]1[C@H]2NC(=O)N[C@H]2CS1(=O)=O [D-biotin sulfone]
- ligand-induced change of emission intensity of BBP-A [1]: enhanced the emission intensity
- kdiss from BBP-A [2, 20]: 3.3^a × 10^-4 s^-1
- ligand-induced change of emission intensity of AVD [5]: increased the emission intensity
- Tm (DSC), BBP-A [6]: 101.4 ± 0.2 °C
- Tm (DSC), AVD [7]: 117.0 ± 0.0 °C
- Enthalpy (ITC), AVD [8]: -25.1 ± 0.1 kcal/mol
- Enthalpy (ITC), BBP-A [9]: -21.4 ± 0.1 kcal/mol

Compound: AVD: AVD isolated from chicken egg-white (Belovo S. A.), control protein
- Tm +BTN (DSC) [11]: 117.0 °C
- Tm -BTN (DSC) [12]: 83.5^c °C
- kdiss, dissociation of fluorescent BTN [13]: 2.0 10^-5 s^-1
- Release 1 h, dissociation of fluorescent BTN [13]: 10%
- Tr +BTN [14]: 90^b °C
- Tr -BTN [14]: 60^b °C

Compound: bAVD: AVD produced in E. coli, control protein
- kdiss, dissociation of fluorescent BTN [13]: 1.1 10^-5 s^-1
- Release 1 h, dissociation of fluorescent BTN [13]: 5%
- Tr +BTN [14]: 90^b °C
- Tr -BTN [14]: 60^b °C

- stoichiometry N [15]: 4
- stoichiometry N [16]: 4
- stoichiometry N [17]: 4
Compound: chicken biotin-binding protein A expressed in bacteria (bBBP-A) (natural protein)

- stoichiometry N [18]: 4
- stoichiometry N [19]: 4
Compound: chicken biotin-binding protein A expressed in insect cells (iBBP-A) (natural protein)
